From US12435061B2 (priority 2020, dated 2025)
Values joined by “and” are separate entries in the source; they are usually repeats but may differ in a detail not shown here. Equal entries are not always repeated. Structures can show the parent of a compound that is named as a salt. Where two headings read alike, the source gives them in different places.

Target: hTRPV3 (Homo sapiens (Human), UniProt Q8NET8)
Assay: Whole-cell patch clamp, hTRPV3 Phase 1 / Phase 2 currents
Format: cell-based
Method in brief: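 Whole-cell recordings on induced TRPV3 cells replated on coverslips, held at −40 mV with 400 ms ramps from −120 to +100 mV every 5 s; currents read at −80 and +80 mV. Ringer's external solution; current activated by heating to ≥28 °C or 20 μM 2-APB.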

[1] = Phase 1 current, human TRPV3, read-out: hTRPV3 (nM) Phase 1
[2] = Phase 1 current, inward, whole-cell patch clamp, read-out: hTRPV3 Patch P1 Inwd
[3] = Phase 2 current, inward, whole-cell patch clamp, read-out: hTRPV3 Patch P2 Inwd
[4] = Phase 1 current, read-out: hTRPV3 (nM) (Phase 1)
[5] = Phase 2 current, read-out: hTRPV3 (nM) (Phase 2)

Sequence of hTRPV3 (Q8NET8 whole entry): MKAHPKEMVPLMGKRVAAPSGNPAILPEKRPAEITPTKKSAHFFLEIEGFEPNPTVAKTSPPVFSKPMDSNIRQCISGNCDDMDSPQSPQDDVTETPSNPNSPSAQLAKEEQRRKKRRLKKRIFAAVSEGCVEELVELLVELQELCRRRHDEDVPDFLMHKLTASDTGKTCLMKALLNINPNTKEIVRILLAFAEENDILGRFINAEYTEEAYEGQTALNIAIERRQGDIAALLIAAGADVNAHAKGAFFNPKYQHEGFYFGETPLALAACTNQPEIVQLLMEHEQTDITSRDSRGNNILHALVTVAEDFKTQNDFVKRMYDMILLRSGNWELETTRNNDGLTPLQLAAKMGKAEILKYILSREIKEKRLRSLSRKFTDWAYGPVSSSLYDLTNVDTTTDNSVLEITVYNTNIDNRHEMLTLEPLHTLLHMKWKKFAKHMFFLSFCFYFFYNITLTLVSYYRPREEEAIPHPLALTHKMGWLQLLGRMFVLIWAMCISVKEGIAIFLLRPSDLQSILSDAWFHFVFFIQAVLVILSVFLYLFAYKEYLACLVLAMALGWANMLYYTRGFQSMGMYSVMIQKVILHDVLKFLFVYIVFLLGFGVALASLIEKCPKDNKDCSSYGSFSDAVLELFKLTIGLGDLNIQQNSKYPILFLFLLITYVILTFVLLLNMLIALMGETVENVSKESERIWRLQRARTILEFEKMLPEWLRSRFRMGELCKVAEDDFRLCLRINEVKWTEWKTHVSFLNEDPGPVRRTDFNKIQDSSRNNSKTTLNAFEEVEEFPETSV

Compound: CC(C)c1ccccc1Oc1ccc(C2CC(=O)N(Cc3ccccn3)C2)c(C(N)=O)c1 (stereo not shown) [Compound 2-99, 5-(2-isopropylphenoxy)-2-(5-oxo-1-(pyridin-2-ylmethyl)pyrrolidin-3-yl)benzamide]
- IC50 [1]: > 3200 nM
- IC50 [2]: > 1000 nM

Compound: 2-(1-o-tolylpyrrolidin-3-yloxy)-5-(trifluoromethyl)pyridine [Compound 1-1]
- IC50 [2]: > 1000 nM
- IC50 [3]: > 1000 nM

Compound: NC(=O)c1cc(-c2ccccc2)ncc1N1CC[C@@H](Oc2ccc(C(F)(F)F)cn2)C1 [Compound 1-99, (R)-2-phenyl-5-(3-(5-(trifluoromethyl)pyridin-2-yloxy)pyrrolidin-1-yl)isonicotinamide]
- IC50 [2]: 100 to 1000 nM
- IC50 [4]: ~787 nM
- IC50 [3]: 100 to 1000 nM
- IC50 [5]: 349 nM

Compound: Cc1ccc(O[C@H]2CCN(c3ccc(-c4ccccc4)nc3CCO)C2)nc1 [Compound 1-215]
- IC50 [2]: > 1000 nM
- IC50 [4]: 1000 nM

Compound: COCc1ccccc1Oc1ccc(N2CC[C@H](Oc3ncccc3C)C2)c(CCO)c1 [Compound 1-350, (S)-2-(5-(2-(methoxymethyl)phenoxy)-2-(3-(3-methylpyridin-2-yloxy)pyrrolidin-1-yl)phenyl)ethanol]
- IC50 [2]: 100 to 1000 nM
- IC50 [4]: 311 nM

Compound: Cc1ccccc1-c1ccc(N2CC[C@H](Oc3ncccc3F)C2)c(CO)n1 [Compound 1-216, (S)-(3-(3-(3-fluoropyridin-2-yloxy)pyrrolidin-1-yl)-6-o-tolylpyridin-2-yl)methanol]
- IC50 [2]: > 1000 nM
- IC50 [4]: 1160 nM

Compound: O=C(c1ccc(F)cc1)c1ccc(N2CC[C@H](Oc3ncccc3Cl)C2)c(CCO)c1 [Compound 1-294, (S)-(4-(3-(3-chloropyridin-2-yloxy)pyrrolidin-1-yl)-3-(2-hydroxyethyl)phenyl)(4-fluorophenyl)methanone]
- IC50 [2]: 100 to 1000 nM
- IC50 [4]: 511 nM
- IC50 [3]: 100 to 1000 nM
- IC50 [5]: 502 nM

Compound: O=C(c1ncccc1Cl)N1CCC(c2ccc(C(O)c3ccccc3F)cc2CO)C1 (stereo not shown) [Compound 2-5, (3-chloropyridin-2-yl)(3-(4-((2-fluorophenyl)(hydroxy)methyl)-2-(hydroxymethyl)phenyl)pyrrolidin-1-yl)methanone]
- IC50 [1]: > 3200 nM
- IC50 [2]: > 1000 nM

Compound: N#Cc1ccccc1-c1ccc(N2CC[C@H](Oc3ccc(F)cn3)C2)c(CO)n1 [Compound 1-210, (S)-2-(5-(3-(5-fluoropyridin-2-yloxy)pyrrolidin-1-yl)-6-(hydroxymethyl)pyridin-2-yl)benzonitrile]
- IC50 [2]: 100 to 1000 nM
- IC50 [4]: 972 nM

Compound: NC(=O)c1ccccc1N1CCC(Oc2ccc3ccccc3n2)C1=O (stereo not shown) [Compound 1-105, 2-(2-oxo-3-(quinolin-2-yloxy)pyrrolidin-1-yl)benzamide]
- IC50 [2]: > 1000 nM
- IC50 [4]: > 3200 nM

Compound: N#Cc1cccc(C(O)c2ccc(N3CC[C@H](Oc4ncccc4Cl)C3)c(CCO)c2)c1 (stereo partly drawn) [Compound 1-356, 3-((4-((S)-3-(3-chloropyridin-2-yloxy)pyrrolidin-1-yl)-3-(2-hydroxyethyl)phenyl)(hydroxy)methyl)benzonitrile]
- IC50 [2]: > 1000 nM
- IC50 [4]: > 3200 nM

Compound: OCc1nc(-c2ccccc2)ccc1N1CC[C@H](Oc2nc(C(F)(F)F)cs2)C1 [Compound 1-396, (S)-(6-phenyl-3-(3-(4-(trifluoromethyl)thiazol-2-yloxy)pyrrolidin-1-yl)pyridin-2-yl)methanol]
- IC50 [2]: > 1000 nM
- IC50 [4]: 1130 nM
- IC50 [3]: > 1000 nM
- IC50 [5]: 2900 nM

Compound: NC(=O)c1cc(-c2ccccn2)ccc1N1CC[C@H](Nc2ccc(C(F)(F)F)cn2)C1 [Compound 1-376, (S)-5-(pyridin-2-yl)-2-(3-(5-(trifluoromethyl)pyridin-2-ylamino)pyrrolidin-1-yl)benzamide]
- IC50 [2]: > 1000 nM
- IC50 [4]: > 3200 nM
- IC50 [3]: > 1000 nM
- IC50 [5]: > 3200 nM

Compound: O=C(c1cc[nH]n1)N1CCC(c2ccc(-c3ccccc3C3CC3)cc2CO)C1 (stereo not shown) [Compound 2-112, (3-(2′-cyclopropyl-3-(hydroxymethyl)biphenyl-4-yl)pyrrolidin-1-yl)(1H-pyrazol-3-yl)methanone]
- IC50 [1]: 98 nM
- IC50 [2]: 10 to 100 nM

Compound: CCc1ccccc1-c1ccc(N2CC[C@H](Oc3ccc(C(F)(F)F)cn3)C2)c(CO)n1 [Compound 1-196, (S)-(6-(2-ethylphenyl)-3-(3-(5-(trifluoromethyl)pyridin-2-yloxy)pyrrolidin-1-yl)pyridin-2-yl)methanol]
- IC50 [2]: > 1000 nM
- IC50 [4]: > 3200 nM

Compound: OCc1cc(Oc2ccccc2F)ccc1N1CC[C@H](Oc2ncccc2F)C1 [Compound 1-298, (S)-(5-(2-fluorophenoxy)-2-(3-(3-fluoropyridin-2-yloxy)pyrrolidin-1-yl)phenyl)methanol]
- IC50 [2]: 10 to 100 nM
- IC50 [4]: 65.7 nM
- IC50 [3]: 10 to 100 nM
- IC50 [5]: 52.9 nM

Compound: CC(C)c1ccccc1Oc1ccc(C2CC(=O)N(Cc3ncccc3Cl)C2)c(CO)c1 (stereo not shown) [Compound 2-88, 1-((3-chloropyridin-2-yl)methyl)-4-(2-(hydroxymethyl)-4-(2-isopropylphenoxy)phenyl)pyrrolidin-2-one]
- IC50 [1]: 169 nM
- IC50 [2]: 100 to 1000 nM
- IC50 (Phase 2 current, human TRPV3, read-out: hTRPV3 (nM) Phase 2): 184 nM
- IC50 [3]: 100 to 1000 nM

Compound: NC(=O)c1ccc(O[C@H]2CCN(c3ccc(-c4ccccc4)cc3CO)C2)nc1 [Compound 1-144, (S)-6-(1-(3-(hydroxymethyl)biphenyl-4-yl)pyrrolidin-3-yloxy)nicotinamide]
- IC50 [2]: > 1000 nM
- IC50 [4]: 1280 nM
- IC50 [3]: > 1000 nM
- IC50 [5]: 4220 nM

Compound: CCc1ccccc1Oc1ccc(N2CC[C@H](Oc3ncccc3Cl)C2)c(C(N)=O)c1 [Compound 1-324]
- hTRPV3 (nM) (Phase 1) (Phase 1 current): Incomplete Block (Phase 1)

Compound: Cc1cc(C(=O)N2CCC(c3ccc(-c4ccccc4C4CC4)cc3CO)C2)no1 (stereo not shown) [Compound 2-123]
- IC50 [1]: 62.9 nM

Compound: CCc1ccccc1Oc1ccc(N2CC[C@H](Oc3ccc(C#N)cn3)C2)c(CCO)c1 [Compound 1-361]
- IC50 [2]: 100 to 1000 nM
- IC50 [4]: 117 nM

Compound: O=C(c1ccncn1)N1CCC(c2ccc(-c3ccccc3C3CC3)cc2CO)C1 (stereo not shown) [Compound 2-110, (3-(2′-cyclopropyl-3-(hydroxymethyl)biphenyl-4-yl)pyrrolidin-1-yl)(pyrimidin-4-yl)methanone]
- IC50 [1]: 197 nM
- IC50 [2]: 100 to 1000 nM

Compound: CCc1ccccc1S(=O)(=O)c1ccc(N2CC[C@H](Oc3ncccc3Cl)C2)c(CCO)c1 [Compound 1-342]
- IC50 [3]: > 1000 nM

Compound: COc1cc(-c2ccccc2Cl)ccc1N1CC[C@@H](Oc2ccc(C(F)(F)F)cn2)C1 [Compound 1-112, (R)-2-(1-(2′-chloro-3-methoxybiphenyl-4-yl)pyrrolidin-3-yloxy)-5-(trifluoromethyl)pyridine]
- IC50 [2]: > 1000 nM
- IC50 [4]: ~2900 nM
- hTRPV3 (nM) (Phase 2) (Phase 2 current): Incomplete Block

Compound: NC(=O)c1cc(-c2ccccc2)ccc1N1CC[C@H](Nc2ccc(C(F)(F)F)cn2)C1 (stereo in doubt) [Compound 1-375]
- IC50 [4]: > 1000 nM and ~5500 nM
- IC50 [5]: > 1000 nM and ~2850 nM

Compound: Cc1ccccc1-c1ccc(N2CC[C@H](Oc3ncccc3C)C2)c(CCO)c1 [Compound 1-198, (S)-2-(2′-methyl-4-(3-(3-methylpyridin-2-yloxy)pyrrolidin-1-yl)biphenyl-3-yl)ethanol]
- IC50 [2]: 100 to 1000 nM
- IC50 [4]: 184 nM

Compound: NC(=O)c1cc(-c2ccncc2)ccc1N1CC[C@@H](Oc2ncccc2Cl)C1 [Compound 1-82, (R)-2-(3-(3-chloropyridin-2-yloxy)pyrrolidin-1-yl)-5-(pyridin-4-yl)benzamide hydrochloride]
- IC50 [2]: > 1000 nM
- IC50 [4]: 3600 nM
- IC50 [3]: > 1000 nM
- IC50 [5]: 1930 nM

Compound: NC(=O)c1ccc(-c2ccc(N3CC[C@H](Oc4ccc(C(F)(F)F)cn4)C3)c(CO)c2)cc1 [Compound 1-253, (S)-3′-(hydroxymethyl)-4′-(3-(5-(trifluoromethyl)pyridin-2-yloxy)pyrrolidin-1-yl)biphenyl-4-carboxamide]
- IC50 [2]: > 1000 nM
- IC50 [4]: > 3200 nM

Compound: CCc1ccccc1Oc1ccc(N2CC[C@H](Oc3ncccc3Cl)C2)c(C#N)c1 [Compound 1-308]
- IC50 [2]: > 1000 nM
- IC50 [4]: > 3200 nM

Compound: CC(C)c1ccc(Oc2ccc(N3CC[C@H](Oc4ccccn4)C3)c(CO)c2)cc1 [Compound 1-325]
- hTRPV3 (nM) (Phase 1) (Phase 1 current): Incomplete Block (Phase 1)

Compound: Cc1cccc(C(O)c2ccc(C3CCN(C(=O)c4ncccc4Cl)C3)c(CO)c2)c1 (single isomer, unassigned) [Compound 2-8]
- IC50 [1]: > 3200 nM
- IC50 [2]: > 1000 nM

Compound: NC(=O)c1cc(-c2ccccc2)cnc1N1CC[C@@H](Oc2ncccc2Cl)C1 [Compound 1-90, (R)-2-(3-(3-chloropyridin-2-yloxy)pyrrolidin-1-yl)-5-phenylnicotinamide]
- IC50 [2]: > 1000 nM
- IC50 [4]: ~3000 nM
- IC50 [3]: > 1000 nM
- IC50 [5]: 1600 nM

Compound: OCc1cc(-c2ccccc2)ccc1N1CC[C@H](Oc2ncccc2Cl)C1 [Compound 1-126, (S)-(4-(3-(3-chloropyridin-2-yloxy)pyrrolidin-1-yl)biphenyl-3-yl)methanol]
- IC50 [3]: 100 to 1000 nM
- IC50 [5]: 369 nM

Compound: Cc1ccc(C(=O)c2ccc(N3CC[C@H](Oc4ncccc4F)C3)c(CO)c2)cc1 [Compound 1-300, (S)-(4-(3-(3-fluoropyridin-2-yloxy)pyrrolidin-1-yl)-3-(hydroxymethyl)phenyl)(p-tolyl)methanone]
- IC50 [2]: 100 to 1000 nM
- IC50 [4]: 860 nM

Compound: OCc1nc(-c2ccccc2)ccc1N1C[C@@H](O)[C@H](Oc2ccc(C(F)(F)F)cn2)C1 [Compound 1-323]
- IC50 [2]: > 1000 nM
- IC50 [4]: 3610 nM

Compound: O=C(c1ccc(Cl)cc1)c1ccc(N2CC[C@H](Nc3ccc(F)cn3)C2)c(CCO)c1 [Compound 1-388, (S)-(4-chlorophenyl)(4-(3-(5-fluoropyridin-2-ylamino)pyrrolidin-1-yl)-3-(2-hydroxyethyl)phenyl)methanone]
- IC50 [2]: > 1000 nM
- IC50 [4]: > 3200 nM

Compound: CNC(=O)c1ccccc1N1CC[C@@H](Oc2ccc(C(F)(F)F)cn2)C1 [Compound 1-47, (R)—N-methyl-2-(3-(5-(trifluoromethyl)pyridin-2-yloxy)pyrrolidin-1-yl)benzamide]
- IC50 [2]: > 1000 nM
